# Experimental data published in patent US20180256673A1, “METHODS FOR TREATING FUNGAL INFECTIONS” (priority 2015, published 2018).
# How the values were obtained:
# [1] = test system: C. albicans ATCC 44858, DPL001, R357; assay: Time-kill assay in vagina-simulative medium pH 4.0 (Table 16); type: cell-based, Candida albicans; conditions: ATCC 44858 (FLU S)
# [2] = test system: C. glabrata CG01, ATCC 200918, MMX 7070; assay: Time-kill assay in vagina-simulative medium pH 4.0 (Table 17); type: cell-based, Candida glabrata; conditions: C. glabrata CG01 (FLU S), VSM pH 4.0
# [3] = test system: C. tropicalis CTO2, MMX 7255, MMX 7525; assay: Time-kill assay in vagina-simulative medium pH 4.0 (Table 18); type: cell-based, Candida tropicalis; conditions: C. tropicalis CT02 (FLU S), VSM pH 4.0
# [4] = test system: C. parapsilosis CP02, CP01, MMX 7370; assay: Time-kill assay in vagina-simulative medium pH 4.0 (Table 19); type: cell-based, Candida parapsilosis; conditions: C. parapsilosis CP02 (FLU S), VSM pH 4.0
# [5] = test system: azole-resistant Candida albicans R357 strain; assay: microbe, parasite or virus in culture; type: cell-based; conditions: for MIC: Candida albicans
compound,measurement,setting,value
"CC(C)N1CCN(c2ccc(OCC3COC(Cn4cncn4)(c4ccc(Cl)cc4Cl)O3)cc2)CC1 (stereo not drawn) [TCZ, terconazole]",log-fold change in CFU,"[1]; 24 h, 2 μg/mL",0.33 log-fold
same,log-fold change in CFU,"[1]; 24 h, 8 μg/mL",0.33 log-fold
same,log-fold change in CFU,"[1]; 24 h, 32 μg/mL",−1.16 log-fold
same,log-fold change in CFU,"[1]; 24 h, 128 μg/mL",−1.41 log-fold
same,log-fold change in CFU,"[1]; 48 h, 2 μg/mL",2.00 log-fold
same,log-fold change in CFU,"[1]; 48 h, 8 μg/mL",1.38 log-fold
same,log-fold change in CFU,"[1]; 48 h, 32 μg/mL",−1.07 log-fold
same,log-fold change in CFU,"[1]; 48 h, 128 μg/mL",−1.64 log-fold
same,log-fold change in CFU,"[1]; 72 h, 2 μg/mL",2.52 log-fold
same,log-fold change in CFU,"[1]; 72 h, 8 μg/mL",2.27 log-fold
same,log-fold change in CFU,"[1]; 72 h, 32 μg/mL",−0.41 log-fold
same,log-fold change in CFU,"[1]; 72 h, 128 μg/mL",−0.81 log-fold
same,log-fold changes in CFU,"[2]; 24 h, 2 μg/mL",2.43 log-fold
same,log-fold changes in CFU,"[2]; 24 h, 8 μg/mL",2.43 log-fold
same,log-fold changes in CFU,"[2]; 24 h, 32 μg/mL",2.40 log-fold
same,log-fold changes in CFU,"[2]; 24 h, 128 μg/mL",1.79 log-fold
same,log-fold changes in CFU,"[2]; 48 h, 2 μg/mL",2.42 log-fold
same,log-fold changes in CFU,"[2]; 48 h, 8 μg/mL",2.45 log-fold
same,log-fold changes in CFU,"[2]; 48 h, 32 μg/mL",2.36 log-fold
same,log-fold changes in CFU,"[2]; 48 h, 128 μg/mL",2.35 log-fold
same,log-fold changes in CFU,"[2]; 72 h, 2 μg/mL",2.47 log-fold
same,log-fold changes in CFU,"[2]; 72 h, 8 μg/mL",2.19 log-fold
same,log-fold changes in CFU,"[2]; 72 h, 32 μg/mL",2.21 log-fold
same,log-fold changes in CFU,"[2]; 72 h, 128 μg/mL",2.30 log-fold
same,log-fold changes in CFU,"[3]; 24 h, 2 μg/mL",2.39 log-fold
same,log-fold changes in CFU,"[3]; 24 h, 8 μg/mL",2.33 log-fold
same,log-fold changes in CFU,"[3]; 24 h, 32 μg/mL",0.00 log-fold
same,log-fold changes in CFU,"[3]; 24 h, 128 μg/mL",−1.00 log-fold
same,log-fold changes in CFU,"[3]; 48 h, 2 μg/mL",2.57 log-fold
same,log-fold changes in CFU,"[3]; 48 h, 8 μg/mL",2.33 log-fold
same,log-fold changes in CFU,"[3]; 48 h, 32 μg/mL",0.23 log-fold
same,log-fold changes in CFU,"[3]; 48 h, 128 μg/mL",−1.00 log-fold
same,log-fold changes in CFU,"[3]; 72 h, 2 μg/mL",2.65 log-fold
same,log-fold changes in CFU,"[3]; 72 h, 8 μg/mL",2.52 log-fold
same,log-fold changes in CFU,"[3]; 72 h, 32 μg/mL",0.27 log-fold
same,log-fold changes in CFU,"[3]; 72 h, 128 μg/mL",−0.94 log-fold
same,log-fold changes in CFU,"[4]; 24 h, 2 μg/mL",0.21 log-fold
same,log-fold changes in CFU,"[4]; 24 h, 8 μg/mL",−0.79 log-fold
same,log-fold changes in CFU,"[4]; 24 h, 32 μg/mL",−0.89 log-fold
same,log-fold changes in CFU,"[4]; 24 h, 128 μg/mL",−0.95 log-fold
same,log-fold changes in CFU,"[4]; 48 h, 2 μg/mL",1.89 log-fold
same,log-fold changes in CFU,"[4]; 48 h, 8 μg/mL",−0.64 log-fold
same,log-fold changes in CFU,"[4]; 48 h, 32 μg/mL",−2.48 log-fold
same,log-fold changes in CFU,"[4]; 48 h, 128 μg/mL",−2.65 log-fold
same,log-fold changes in CFU,"[4]; 72 h, 2 μg/mL",2.00 log-fold
same,log-fold changes in CFU,"[4]; 72 h, 8 μg/mL",−0.63 log-fold
same,log-fold changes in CFU,"[4]; 72 h, 32 μg/mL",−2.78 log-fold
same,log-fold changes in CFU,"[4]; 72 h, 128 μg/mL",−2.95 log-fold
CC[C@@H]([C@H](C)O)n1ncn(-c2ccc(N3CCN(c4ccc(OC[C@@H]5CO[C@@](Cn6cncn6)(c6ccc(F)cc6F)C5)cc4)CC3)cc2)c1=O [Posaconazole],MIC,[5],> 64 µg/mL
C[C@@H](c1ncncc1F)[C@](O)(Cn1cncn1)c1ccc(F)cc1F [Voriconazole],Susceptibility (CLSI),[5]; C. albicans R357,R
same,MIC,[5],> 64 µg/mL
